Measurements: publication PMC7803973, “Structural basis of malaria parasite phenylalanine tRNA-synthetase inhibition by bicyclic azetidines” (Nature Communications, 2021)

Columns and labels:
HscFRS = HscFRS (Homo sapiens, UniProt Q9Y285); experiment: Malachite green aminoacylation enzyme inhibition assay; type: biochemical
Description: (§1) These were done using malachite green assay as per earlier published reports[1],[6]. Briefly, the reaction was performed for 100 µM ATP, 50 µM L-phenylalanine and 100 nM recombinant PheRS enzymes (Pf, Pv, Hs, Pf mutant (L550V)) in a buffer containing 30 mM HEPES (pH 7.5), 150 mM, NaCl, 30 mM KCl, 50 mM, MgCl2, 1 mM DTT, and 2 U/ml E. coli inorganic pyrophosphatase (NEB) at 37 °C. Enzymatic reactions (50 μl total volume) were performed in clear, flat-bottomed, 96-well plates (Costar 96-well standard microplates). The reaction mixture was incubated for 2 h at 37 °C. The reaction was stopped by adding 12.5 μl of malachite green solution to the reaction mixture and levels of inorganic phosphate (Pi) were detected after incubation of 5 min at room temperature. Absorbance was the measured at 620 nm using a Spectramax M2 (Molecular Devices). Reactions without FRS enzyme were performed as background controls, values of which were subtracted from the reactions with enzyme. BRD1389 was added to our aminoacylation assay reaction buffer in varying concentrations ranging from 0.1 nM to 10,000 nM. The IC50 value for the data is shown for three replicates as the mean ± SD.

PfcFRS mutant (L550V) = PfcFRS mutant (L550V) (Plasmodium falciparum, UniProt Q8I246, L550V); experiment: as above; type: biochemical
Chain of PfcFRS mutant (L550V) (Q8IIW2 whole entry, stated change not applied): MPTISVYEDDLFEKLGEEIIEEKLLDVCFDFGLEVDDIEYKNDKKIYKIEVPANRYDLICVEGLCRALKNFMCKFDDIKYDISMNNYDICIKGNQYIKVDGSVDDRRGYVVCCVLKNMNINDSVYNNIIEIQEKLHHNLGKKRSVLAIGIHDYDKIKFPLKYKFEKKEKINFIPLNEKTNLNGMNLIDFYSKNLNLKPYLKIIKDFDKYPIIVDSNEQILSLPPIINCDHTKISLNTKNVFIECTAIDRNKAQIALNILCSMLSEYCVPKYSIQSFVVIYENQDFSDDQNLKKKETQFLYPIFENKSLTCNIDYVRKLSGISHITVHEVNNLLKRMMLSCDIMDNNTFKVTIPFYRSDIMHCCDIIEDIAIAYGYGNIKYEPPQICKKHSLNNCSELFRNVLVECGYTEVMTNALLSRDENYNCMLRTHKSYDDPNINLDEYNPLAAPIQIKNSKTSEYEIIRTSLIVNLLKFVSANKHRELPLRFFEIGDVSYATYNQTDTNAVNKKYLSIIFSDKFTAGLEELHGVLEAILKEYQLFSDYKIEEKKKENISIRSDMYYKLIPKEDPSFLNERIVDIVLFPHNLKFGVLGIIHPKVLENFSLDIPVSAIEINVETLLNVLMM
Chain of PfcFRS mutant (L550V) (Q8I246 whole entry, stated change not applied): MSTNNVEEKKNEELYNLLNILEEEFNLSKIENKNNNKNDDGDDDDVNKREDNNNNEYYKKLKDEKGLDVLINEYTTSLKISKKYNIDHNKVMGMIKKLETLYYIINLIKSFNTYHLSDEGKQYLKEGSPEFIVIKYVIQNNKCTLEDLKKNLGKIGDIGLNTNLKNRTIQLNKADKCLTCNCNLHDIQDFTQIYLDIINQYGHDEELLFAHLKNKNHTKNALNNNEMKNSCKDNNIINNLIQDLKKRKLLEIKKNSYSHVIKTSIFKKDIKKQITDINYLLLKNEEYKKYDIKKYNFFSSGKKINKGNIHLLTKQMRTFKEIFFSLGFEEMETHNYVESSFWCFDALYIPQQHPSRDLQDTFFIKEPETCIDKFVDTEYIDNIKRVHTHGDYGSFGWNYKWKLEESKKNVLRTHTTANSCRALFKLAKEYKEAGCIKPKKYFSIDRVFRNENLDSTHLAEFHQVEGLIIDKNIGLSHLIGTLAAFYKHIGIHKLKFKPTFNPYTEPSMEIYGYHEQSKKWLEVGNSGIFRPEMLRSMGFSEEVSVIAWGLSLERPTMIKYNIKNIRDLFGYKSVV
Description: as §1

PvcFRS = biological target: T1, PvcFRS (Plasmodium vivax, UniProt A5K9S0); experiment: Incubation of PvcFRS with BRD1389 and ATP analogue AMPPNP; type: binding; details: PvcFRS with high concentrations of both BRD1389 and AMPPNP
T1 construct: Full-length PvcFRS was also purified according to the same protocol; vector-encoded tag of pETM11 (own knowledge: N-terminal His6 with TEV site); Ni-NTA purification; made in house; host or cells: E. coli strain B834
T1 sequence (A5K464 whole entry): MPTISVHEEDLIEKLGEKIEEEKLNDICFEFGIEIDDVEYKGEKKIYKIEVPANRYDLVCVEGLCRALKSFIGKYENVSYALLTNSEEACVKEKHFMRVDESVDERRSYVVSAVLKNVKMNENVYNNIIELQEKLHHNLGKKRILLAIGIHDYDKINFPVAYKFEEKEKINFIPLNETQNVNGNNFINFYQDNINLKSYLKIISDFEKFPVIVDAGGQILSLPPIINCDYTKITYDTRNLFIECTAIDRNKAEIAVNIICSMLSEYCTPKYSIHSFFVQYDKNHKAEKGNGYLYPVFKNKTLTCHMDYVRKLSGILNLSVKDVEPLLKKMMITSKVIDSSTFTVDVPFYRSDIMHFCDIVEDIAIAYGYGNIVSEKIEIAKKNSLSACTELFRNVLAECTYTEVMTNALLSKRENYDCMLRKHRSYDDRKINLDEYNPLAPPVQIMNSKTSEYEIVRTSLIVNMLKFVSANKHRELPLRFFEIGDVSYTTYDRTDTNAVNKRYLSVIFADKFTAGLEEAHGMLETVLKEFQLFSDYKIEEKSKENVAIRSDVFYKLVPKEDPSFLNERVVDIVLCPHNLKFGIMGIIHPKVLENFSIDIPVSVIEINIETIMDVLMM
T1 sequence (A5K9S0 whole entry): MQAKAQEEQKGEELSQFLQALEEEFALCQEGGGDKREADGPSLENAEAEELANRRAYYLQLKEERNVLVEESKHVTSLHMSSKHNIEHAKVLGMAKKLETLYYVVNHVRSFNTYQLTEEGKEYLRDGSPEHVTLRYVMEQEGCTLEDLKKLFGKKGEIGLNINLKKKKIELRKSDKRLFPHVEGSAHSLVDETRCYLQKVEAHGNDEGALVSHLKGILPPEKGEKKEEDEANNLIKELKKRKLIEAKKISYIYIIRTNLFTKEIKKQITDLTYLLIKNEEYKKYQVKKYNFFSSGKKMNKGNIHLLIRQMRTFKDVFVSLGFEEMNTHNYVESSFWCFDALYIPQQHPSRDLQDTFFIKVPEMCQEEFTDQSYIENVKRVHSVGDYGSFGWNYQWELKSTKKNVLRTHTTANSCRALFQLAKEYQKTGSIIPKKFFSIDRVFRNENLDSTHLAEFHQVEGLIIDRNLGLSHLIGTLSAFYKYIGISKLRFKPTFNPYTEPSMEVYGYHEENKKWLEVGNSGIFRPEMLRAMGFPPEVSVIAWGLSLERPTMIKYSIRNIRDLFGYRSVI
Text: The diarylacetylene moiety of BRD1389 that occupies the L-Phe site is recognized via a bed of β-strand residues Ala541-Trp542-Gly543-Leu544 (Fig. 3b), while its edge phenyl ring is covered by Tyr497 where it provides an aromatic T-shaped π…π interaction at a distance of ~4.2 Å (Fig. 3b). In addition, the diarylacetylene moiety is surrounded by hydrophobic elements of Asn519, Gln457, and Glu459 (Fig. 3b). The urea moiety of BRD1389 is buried in a groove that is composed of Gly506, His508, Glu510, Lys512–513, Leu515, Ile552 and Pro549 (Figs. 3b, e and 4c). The urea/groove interactions are mainly stabilized by hydrophobic contacts, particularly from Pro549 and His508 while residues Val517, Ile483 and Pro549 provide sandwich support to the cyclopropoxy moiety (Figs. 3b and 4c). The urea component of BRD1389 forms hydrogen bonding interactions with main-chain N-atom of Ser545 (Fig. 3a, b). The above sets of extensive interactions position BRD1389 in an ‘L’ shaped conformation wherein its methoxy methyl group is surrounded by socket residues Arg443, Glu445, His451, and Phe455. […] This similarity highlights the importance of the three-dimensional shape and rigidity of the diazabicyclodecane scaffold in pre-orienting the molecular appendages for optimal target engagement. […]

[1] = 2 h, read-out: % Enzyme Activity

Chain of HscFRS (Q9NSD9 whole entry): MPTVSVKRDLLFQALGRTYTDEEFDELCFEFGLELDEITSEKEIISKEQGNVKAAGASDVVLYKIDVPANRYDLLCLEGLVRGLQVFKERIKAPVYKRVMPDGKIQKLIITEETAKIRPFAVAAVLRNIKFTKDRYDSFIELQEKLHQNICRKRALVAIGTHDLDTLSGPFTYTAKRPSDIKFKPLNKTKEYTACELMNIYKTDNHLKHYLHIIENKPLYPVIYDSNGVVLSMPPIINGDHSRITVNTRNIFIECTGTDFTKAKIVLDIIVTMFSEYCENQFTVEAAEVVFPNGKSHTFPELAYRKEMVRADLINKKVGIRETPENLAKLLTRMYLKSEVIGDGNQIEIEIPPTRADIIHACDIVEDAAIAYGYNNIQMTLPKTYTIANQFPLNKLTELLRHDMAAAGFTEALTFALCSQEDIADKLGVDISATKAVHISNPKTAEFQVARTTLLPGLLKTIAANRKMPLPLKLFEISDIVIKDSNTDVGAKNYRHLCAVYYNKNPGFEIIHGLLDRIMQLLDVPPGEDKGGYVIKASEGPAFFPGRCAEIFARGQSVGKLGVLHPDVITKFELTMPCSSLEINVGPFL
Chain of HscFRS (Q9Y285 whole entry): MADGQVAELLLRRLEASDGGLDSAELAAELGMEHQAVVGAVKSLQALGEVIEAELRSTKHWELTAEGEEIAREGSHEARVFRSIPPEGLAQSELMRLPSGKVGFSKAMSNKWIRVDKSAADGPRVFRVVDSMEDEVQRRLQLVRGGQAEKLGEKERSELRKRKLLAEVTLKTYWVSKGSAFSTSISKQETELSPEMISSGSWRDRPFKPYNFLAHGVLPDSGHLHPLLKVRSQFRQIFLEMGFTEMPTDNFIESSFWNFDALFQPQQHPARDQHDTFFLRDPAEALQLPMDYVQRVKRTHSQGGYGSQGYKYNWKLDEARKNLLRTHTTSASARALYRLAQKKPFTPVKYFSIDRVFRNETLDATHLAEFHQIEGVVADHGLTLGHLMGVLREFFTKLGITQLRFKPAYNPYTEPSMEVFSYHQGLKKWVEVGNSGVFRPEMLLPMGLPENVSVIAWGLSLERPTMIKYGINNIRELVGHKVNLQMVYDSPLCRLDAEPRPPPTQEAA

COC[C@@H]1[C@H](c2ccc(C#Cc3ccccc3)cc2)[C@@H]2CN(C(=O)Nc3ccc(OC4CC4)cc3)C[C@@H](O)[C@@H](O)CN12 [BRD1389] showed an IC50 (HscFRS; Hs cFRS aminoacylation activity) of 12 µM, a remaining activity at 0.0001 µM (HscFRS; HscFRS, BRD1389 0.0001 uM) of 99.6% and a remaining activity at 0.001 µM (HscFRS; HscFRS, BRD1389 0.001 uM) of 100%. It also gave a remaining activity at 0.01 µM (HscFRS; HscFRS, BRD1389 0.01 uM) of 99.7%, a remaining activity at 0.1 µM (HscFRS; HscFRS, BRD1389 0.1 uM) of 90.2% and a remaining activity at 1 µM (HscFRS; HscFRS, BRD1389 1 uM) of 85%. It also gave a remaining activity at 10 µM (HscFRS; HscFRS, BRD1389 10 uM) of 49.5%, a remaining activity at 100 µM (HscFRS; HscFRS, BRD1389 100 uM) of 20% and an IC50 (PfcFRS mutant (L550V)) of 1 µM. It also gave a remaining activity at 1 pM (PfcFRS mutant (L550V); [1]) of 100%, a remaining activity at 0.0001 µM (PfcFRS mutant (L550V); [1]) of 99.5% and a remaining activity at 0.001 µM (PfcFRS mutant (L550V); [1]) of 98%. The remaining activity at 0.01 µM (PfcFRS mutant (L550V); [1]) was 95.2%, the remaining activity at 0.1 µM (PfcFRS mutant (L550V); [1]) was 75.4% and the remaining activity at 1 µM (PfcFRS mutant (L550V); [1]) was 55.3%. For the same molecule, the remaining activity at 10 µM (PfcFRS mutant (L550V); [1]) was 18.8%, the remaining activity at 100 µM (PfcFRS mutant (L550V); [1]) was 0% and the “Binding observed on co-incubation” value (PvcFRS) was “observed only binding of BRD1389”.
